Experimental data as given in ChEMBL document CHEMBL1909046, “DrugMatrix in vitro pharmacology data”.

Experiments:
[1] = DRUGMATRIX: Glutamate, AMPA radioligand binding (ligand: [3H] AMPA); format: cell membranes, Rattus norvegicus, Wistar, Cerebral cortex, Membrane; conditions: Not Active = under 50% inhibition at 10 µM
Glucocorticoid receptor = molecular target: T1, Glucocorticoid receptor (Homo sapiens, UniProt P04150); conditions: hela s3; also: in other assays of this panel Not Active means under 50% inhibition at 10 µM
T1 sequence (P04150 whole entry): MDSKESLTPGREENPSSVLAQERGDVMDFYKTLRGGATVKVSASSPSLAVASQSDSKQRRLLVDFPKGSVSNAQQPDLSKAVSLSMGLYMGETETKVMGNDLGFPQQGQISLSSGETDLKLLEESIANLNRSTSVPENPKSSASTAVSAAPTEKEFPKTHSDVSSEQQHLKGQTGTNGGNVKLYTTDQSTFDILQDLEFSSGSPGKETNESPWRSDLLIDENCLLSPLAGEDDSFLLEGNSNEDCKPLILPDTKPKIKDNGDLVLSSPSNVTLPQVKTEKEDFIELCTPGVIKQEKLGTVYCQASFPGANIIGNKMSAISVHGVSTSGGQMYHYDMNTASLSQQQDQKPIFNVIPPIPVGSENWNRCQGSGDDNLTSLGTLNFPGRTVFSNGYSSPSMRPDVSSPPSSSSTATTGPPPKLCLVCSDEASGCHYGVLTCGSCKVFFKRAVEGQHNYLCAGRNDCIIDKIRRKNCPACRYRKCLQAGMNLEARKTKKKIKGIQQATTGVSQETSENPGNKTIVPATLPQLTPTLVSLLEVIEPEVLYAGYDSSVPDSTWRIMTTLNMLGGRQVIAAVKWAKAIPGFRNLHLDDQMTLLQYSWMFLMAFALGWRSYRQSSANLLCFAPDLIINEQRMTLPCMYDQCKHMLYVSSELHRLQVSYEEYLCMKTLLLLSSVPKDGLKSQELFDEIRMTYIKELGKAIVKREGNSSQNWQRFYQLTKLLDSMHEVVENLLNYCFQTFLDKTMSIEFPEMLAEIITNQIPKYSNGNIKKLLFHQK

Caspase-1 = molecular target: T2, Caspase-1 (Homo sapiens, UniProt P29466); parameters: species or system Escherichia coli;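 also: Caspase-1 enzyme inhibition assay with a peptide substrate; in other assays of this panel Not Active means under 50% inhibition at 10 µM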
T2 sequence (P29466 whole entry): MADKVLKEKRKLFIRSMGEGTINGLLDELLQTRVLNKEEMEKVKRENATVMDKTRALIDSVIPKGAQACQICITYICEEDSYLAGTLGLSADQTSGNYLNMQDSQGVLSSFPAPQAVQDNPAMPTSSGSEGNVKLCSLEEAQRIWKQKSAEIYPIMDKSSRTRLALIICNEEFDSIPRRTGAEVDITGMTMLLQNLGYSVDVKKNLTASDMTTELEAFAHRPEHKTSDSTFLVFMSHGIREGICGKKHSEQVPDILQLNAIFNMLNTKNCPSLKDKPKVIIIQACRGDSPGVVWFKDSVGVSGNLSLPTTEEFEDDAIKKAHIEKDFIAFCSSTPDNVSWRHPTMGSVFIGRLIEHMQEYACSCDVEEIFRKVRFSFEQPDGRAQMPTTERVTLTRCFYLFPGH

[2] = molecular target: 5-hydroxytryptamine receptor 2B (Homo sapiens, UniProt P41595); format: cell membranes, CHO-K1, Membrane; conditions: for Ki: read-out: Ki; as to all read-outs here: in other assays of this panel Not Active means under 50% inhibition at 10 µM
[3] = DRUGMATRIX: Nicotinic Acetylcholine radioligand binding (ligand: [125I] Epibatidine); format: cell membranes, Membrane; conditions: imr-32; Not Active = under 50% inhibition at 10 µM
[4] = molecular target: Sodium-dependent dopamine transporter (Homo sapiens, UniProt Q01959); assay: DRUGMATRIX: Dopamine Transporter radioligand binding (ligand: [125I] RTI-55); format: cell membranes, CHO-K1, Membrane; conditions: Not Active = under 50% inhibition at 10 µM
Estrogen receptor beta = Estrogen receptor beta (Homo sapiens, UniProt Q92731); conditions: sf9; also: in other assays of this panel Not Active means under 50% inhibition at 10 µM
Sequence of Estrogen receptor beta (Q92731 whole entry): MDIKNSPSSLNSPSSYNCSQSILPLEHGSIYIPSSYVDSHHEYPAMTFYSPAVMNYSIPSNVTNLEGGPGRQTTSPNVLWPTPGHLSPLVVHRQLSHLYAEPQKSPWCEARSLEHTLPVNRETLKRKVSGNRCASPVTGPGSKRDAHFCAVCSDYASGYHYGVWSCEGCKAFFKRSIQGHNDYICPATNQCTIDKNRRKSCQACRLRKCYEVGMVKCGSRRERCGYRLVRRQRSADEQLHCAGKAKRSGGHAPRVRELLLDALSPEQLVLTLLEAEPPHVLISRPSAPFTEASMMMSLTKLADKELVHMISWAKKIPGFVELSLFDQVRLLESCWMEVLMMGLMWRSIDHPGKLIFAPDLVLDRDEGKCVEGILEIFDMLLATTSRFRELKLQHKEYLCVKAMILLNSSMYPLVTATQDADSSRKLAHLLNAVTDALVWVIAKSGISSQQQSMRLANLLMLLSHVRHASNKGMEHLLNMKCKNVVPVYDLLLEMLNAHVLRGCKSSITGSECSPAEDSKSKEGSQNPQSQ

Sequence of Sodium-dependent dopamine transporter (Q01959 whole entry): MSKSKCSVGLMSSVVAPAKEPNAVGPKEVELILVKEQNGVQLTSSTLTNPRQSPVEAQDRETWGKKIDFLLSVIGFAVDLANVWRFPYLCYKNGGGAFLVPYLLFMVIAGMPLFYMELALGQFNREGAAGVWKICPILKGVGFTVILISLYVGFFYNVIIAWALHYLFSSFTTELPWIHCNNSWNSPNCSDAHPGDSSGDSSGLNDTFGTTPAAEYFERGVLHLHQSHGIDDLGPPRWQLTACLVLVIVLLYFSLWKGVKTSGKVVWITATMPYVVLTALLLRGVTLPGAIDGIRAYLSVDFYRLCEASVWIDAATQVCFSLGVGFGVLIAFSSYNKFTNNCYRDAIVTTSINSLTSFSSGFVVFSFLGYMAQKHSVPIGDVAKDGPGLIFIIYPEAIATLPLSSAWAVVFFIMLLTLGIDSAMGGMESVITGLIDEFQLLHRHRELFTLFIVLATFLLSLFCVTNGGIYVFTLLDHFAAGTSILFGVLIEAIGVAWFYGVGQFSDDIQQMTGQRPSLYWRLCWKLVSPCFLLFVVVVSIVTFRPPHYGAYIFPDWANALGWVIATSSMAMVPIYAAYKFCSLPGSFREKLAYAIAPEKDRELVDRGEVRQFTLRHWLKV
Sequence of 5-hydroxytryptamine receptor 2B (P41595 whole entry): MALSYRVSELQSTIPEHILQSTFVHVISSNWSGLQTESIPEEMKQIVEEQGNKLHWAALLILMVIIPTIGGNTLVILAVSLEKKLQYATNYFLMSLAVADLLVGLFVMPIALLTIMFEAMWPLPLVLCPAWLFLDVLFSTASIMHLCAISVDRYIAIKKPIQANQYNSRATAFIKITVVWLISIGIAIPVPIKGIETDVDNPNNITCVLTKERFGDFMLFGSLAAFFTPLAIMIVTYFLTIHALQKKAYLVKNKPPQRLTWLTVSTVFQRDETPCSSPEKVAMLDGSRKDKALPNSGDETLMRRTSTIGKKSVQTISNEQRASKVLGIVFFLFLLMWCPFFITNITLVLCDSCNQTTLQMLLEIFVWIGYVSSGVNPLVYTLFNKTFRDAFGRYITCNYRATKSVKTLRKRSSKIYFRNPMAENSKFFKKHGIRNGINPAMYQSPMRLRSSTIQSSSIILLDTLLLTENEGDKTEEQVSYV

Structure (SMILES)	IC50 [1]	Ki [1]	IC50 (Glucocorticoid receptor)	IC50 (Caspase-1)	IC50 ([2]; cho-k1)	IC50 [3]	Ki [3]	IC50 ([4]; cho-k1)	IC50 (Estrogen receptor beta)	IC50 ([2]; read-out: IC50)	Ki [2]	IC50 ([4]; read-out: IC50)	Ki ([4]; read-out: Ki)
C[C@@H]1CC[C@@]2(OC1)O[C@H]1[C@@H](O)[C@H]3[C@@H]4CC[C@H]5C[C@@H](O[C@@H]6O[C@H](CO)[C@H](O[C@@H]7O[C@H](CO)C(O)[C@H](O[C@@H]8OC[C@@H](O)[C@H](O)[C@H]8O)[C@H]7O[C@@H]7O[C@H](CO)[C@H](O)[C@H](O[C@@H]8O[C@H](CO)[C@@H](O)[C@H](O)[C@H]8O)[C@H]7O)[C@H](O)[C@H]6O)[C@H](O)C[C@]5(C)[C@H]4CC[C@]3(C)[C@H]1[C@@H]2C (some centres not stated) [DIGITONIN]	Not Active	Not Active	Not Active	Not Active	Not Active	Not Active	Not Active	Not Active	Not Active	–	–	–	–
C[C@H]1O[C@@H](n2cc(F)c(=O)[nH]c2=O)[C@H](O)[C@@H]1O [DOXIFLURIDINE]	Not Active	Not Active	Not Active	Not Active	Not Active	Not Active	Not Active	Not Active	Not Active	–	–	–	–
Cn1c(=O)c2c(ncn2CC(O)CO)n(C)c1=O (configuration not stated) [DYPHYLLINE]	Not Active	Not Active	Not Active	Not Active	Not Active	Not Active	Not Active	Not Active	Not Active	–	–	–	–
C[C@@H](CO)NC(=O)[C@@H]1C=C2c3cccc4[nH]cc(c34)C[C@H]2N(C)C1 [ERGONOVINE]	Not Active	Not Active	Not Active	Not Active	–	Not Active	Not Active	Not Active	Not Active	0.00414 µM	0.00263 µM	–	–
COC(=O)CCc1ccc(OCC(O)CNC(C)C)cc1 (configuration not stated) [ESMOLOL]	Not Active	Not Active	Not Active	Not Active	Not Active	Not Active	Not Active	Not Active	Not Active	–	–	–	–
C#C[C@]1(OC(C)=O)CC[C@H]2[C@@H]3CCC4=C[C@@H](OC(C)=O)CC[C@@H]4[C@H]3CC[C@@]21C [ETHYNODIOL DIACETATE]	Not Active	Not Active	Not Active	Not Active	Not Active	Not Active	Not Active	Not Active	Not Active	–	–	–	–
COc1ccc2c3c1O[C@H]1C[C@@H](O)C=C[C@@]31CCN(C)C2 [GALANTAMINE]	Not Active	Not Active	Not Active	Not Active	Not Active	Not Active	Not Active	Not Active	Not Active	–	–	–	–
Nc1ccn([C@@H]2O[C@H](CO)[C@@H](O)C2(F)F)c(=O)n1 [GEMCITABINE]	Not Active	Not Active	Not Active	Not Active	Not Active	Not Active	Not Active	Not Active	Not Active	–	–	–	–
COC1=C(OC)C(=O)C(CCCCCCCCCCO)=C(C)C1=O [IDEBENONE]	Not Active	Not Active	Not Active	Not Active	Not Active	Not Active	Not Active	Not Active	Not Active	–	–	–	–
CC(C)NNC(=O)c1ccncc1 [IPRONIAZID]	Not Active	Not Active	Not Active	Not Active	Not Active	Not Active	Not Active	Not Active	Not Active	–	–	–	–
Cc1c(OCC(F)(F)F)ccnc1C[S+]([O-])c1nc2ccccc2[nH]1 (configuration not stated) [LANSOPRAZOLE]	Not Active	Not Active	Not Active	Not Active	Not Active	Not Active	Not Active	Not Active	Not Active	–	–	–	–
O=c1cc(N2CCOCC2)oc2c(-c3ccccc3)cccc12 [LY-294002]	Not Active	Not Active	Not Active	Not Active	–	Not Active	Not Active	Not Active	Not Active	36.7 µM	23.4 µM	–	–
COc1ccc2[nH]cc(CCNC(C)=O)c2c1 [MELATONIN]	Not Active	Not Active	Not Active	Not Active	Not Active	Not Active	Not Active	Not Active	Not Active	–	–	–	–
CCN(CC)CCOCCC1=CCC2CC1C2(C)C (configuration not stated) [MYRTECAINE]	Not Active	Not Active	Not Active	Not Active	Not Active	Not Active	Not Active	Not Active	Not Active	–	–	–	–
O=C(O)c1cccnc1Nc1cccc(C(F)(F)F)c1 [NIFLUMIC ACID]	Not Active	Not Active	Not Active	Not Active	Not Active	Not Active	Not Active	Not Active	Not Active	–	–	–	–
O=C(N/N=C/c1ccc([N+](=O)[O-])o1)c1cc([N+](=O)[O-])cc([N+](=O)[O-])c1O [NIFURSOL]	Not Active	Not Active	Not Active	Not Active	Not Active	Not Active	Not Active	Not Active	Not Active	–	–	–	–
COC(=O)Nc1nc2ccc(C(=O)c3cccs3)cc2[nH]1 [NOCODAZOLE]	Not Active	Not Active	Not Active	Not Active	–	Not Active	Not Active	–	Not Active	20.2 µM	12.8 µM	6.23 µM	4.95 µM
CC(=O)O[C@H]1C(=O)[C@@]2(C)[C@H]([C@H](OC(=O)c3ccccc3)[C@]3(O)C[C@H](OC(=O)[C@H](O)[C@@H](NC(=O)c4ccccc4)c4ccccc4)C(C)=C1C3(C)C)[C@]1(OC(C)=O)CO[C@@H]1C[C@@H]2O [PACLITAXEL]	Not Active	Not Active	Not Active	Not Active	Not Active	Not Active	Not Active	Not Active	Not Active	–	–	–	–
C[n+]1ccc(-c2cc[n+](C)cc2)cc1.[Cl-].[Cl-] [PARAQUAT DICHLORIDE]	Not Active	Not Active	Not Active	Not Active	Not Active	Not Active	Not Active	Not Active	Not Active	–	–	–	–
CC(C)NCC(O)COc1cccc2[nH]ccc12 (configuration not stated) [PINDOLOL]	Not Active	Not Active	Not Active	Not Active	Not Active	Not Active	Not Active	Not Active	Not Active	–	–	–	–
CCn1cc(C(=O)O)c(=O)c2cnc(N3CCCC3)nc21 [PIROMIDIC ACID]	Not Active	Not Active	Not Active	Not Active	Not Active	Not Active	Not Active	Not Active	Not Active	–	–	–	–
C[n+]1ccccc1/C=N/O.[Cl-] [PRALIDOXIME CHLORIDE]	Not Active	Not Active	Not Active	Not Active	Not Active	Not Active	Not Active	Not Active	Not Active	–	–	–	–
COc1cc2nc(N3CCN(C(=O)c4ccco4)CC3)nc(N)c2cc1OC [PRAZOSIN]	Not Active	Not Active	Not Active	Not Active	–	Not Active	Not Active	Not Active	Not Active	4.12 µM	2.62 µM	–	–
